Measurements from a melting point compilation (Tetko et al.).

| Compound | melting point [°C] |
| --- | --- |
| C1CCC2(CC1)OCC(C1OC3(CCCCC3)OC1C1COC3(CCCCC3)O1)O2 (stereo not drawn) | 82 to 84 |
| S=C1NCCCN1 | 211 |
| CC1CC=C/C1=N\Nc1ccc([N+](=O)[O-])cc1[N+](=O)[O-] (stereo not drawn) | 180 |
| CN1CCc2c(sc(N)c2C#N)C1 | 192 to 194 |
| O=[N+]([O-])c1ccc(S(=O)(=O)Cl)cc1Cl | 38 |
| CCC1CC(O)CC(C)(C)N1O (stereo not drawn) | 69 to 73 |
| COC(=O)C(F)(F)C(F)(F)C(F)(F)F | -86 |
| CC1(C)OC2OC(CO)C3OC(C)(C)OC3C2O1 (stereo not drawn) | 120 to 122 |
| CCCCCCCCSCCO | 0 |
| COc1ccc(C=C2C(=O)OC(C)(C)OC2=O)cc1OC | 164 |
| CC(CN1c2ccccc2Sc2ccccc21)N(C)C (stereo not drawn) | 60 |
| Oc1ccc(C(c2ccccc2)(c2ccccc2)c2ccccc2)cc1 | 283 to 289 |
| Nc1ccncc1Cl | 51 |
| S=C=Nc1ccc(Cl)c(Cl)c1Cl | 69.5 |
| Cc1cccc(C)c1N(C)C | -36 |
| O=C1c2ccccc2C(=C2c3ccccc3C(=O)c3ccccc32)c2ccccc21 | 300 |
| CNC(=O)c1cc([N+](=O)[O-])cc([N+](=O)[O-])c1 | 148 to 149 |
| CC(=O)N[C@H]1[C@H](OC(C)=O)O[C@H](COC(C)=O)[C@@H](OC(C)=O)[C@@H]1OC(C)=O | 186 to 189 |
| O=[N+]([O-])c1ccc(S(=O)(=O)OCc2cccc(OS(=O)(=O)c3ccc([N+](=O)[O-])cc3)c2)cc1 | 199 to 202 |
| O=C(O)[C@@H]1CSCN1C(=O)OCC1c2ccccc2-c2ccccc21 | 156 to 158 |
| OOC1CCCCC1 | -20 |

| Compound | melting point [°C] |
| --- | --- |
| O=C(ON1C(=O)CCC1=O)ON1C(=O)CCC1=O | 190 |
| FC(F)(F)c1nnc(S)n1/N=C/c1ccc2c(c1)OCO2 | 221 |
| N#Cc1ccc(CS(=O)(=O)Cl)cc1 | 99.5 to 102 |
| CC(=O)Nc1cccc(N=Nc2cccc(NC(C)=O)c2)c1 | 272 |
| O=S(=O)(c1ccccc1)n1ccc2ccccc21 | 78 to 80 |
| FC(F)(F)c1ccc(N2CCOCC2)c(CCl)c1 | 52 to 54 |
| CC(=O)Nc1c(Br)cc(Br)cc1C(=O)c1ccccc1 | 156 |
| Nc1cc(C(F)(F)F)cc(Br)c1N | 60 to 62 |
| CCCC1COC(c2ccc(C#N)cc2)OC1 (stereo not drawn) | 57.5 |
| CC1(C)C(C=CC(=O)OC(C(F)(F)F)C(F)(F)F)C1C(=O)OC(C#N)c1cccc(Oc2ccccc2)c1 (stereo not drawn) | 81.5 |
| CSc1ncccc1-c1nc(CCl)no1 | 110 to 111 |
| CC12CCC3C(CCC4CC(=O)CCC43C)C1CCC2O (stereo not drawn) | 181 |
| OC(C1=CC(=C(c2ccccn2)c2ccccn2)C=C1)(c1ccccn1)c1ccccn1 | 146 |
| Cc1cc(O)ccc1[N+](=O)[O-] | 128 |
| Cc1cc(C)c2c(N)c(C(N)=O)sc2n1 | 234 to 235 |
| O=[N+]([O-])c1ccc(C(Br)C(Br)c2ccc(C(Br)C(Br)c3ccc([N+](=O)[O-])cc3[N+](=O)[O-])cc2)c([N+](=O)[O-])c1 (stereo not drawn) | 265 |
| CCOP(=S)(OCC)Oc1ccc(=O)n(-c2ccccc2)n1 | 56.2 |
| O=C(c1ccc2ccccc2c1)c1noc(-c2cccc3ccccc23)c1S(=O)(=O)c1ccccc1 | 115 |
| CCCC1CC(C(=O)NC(C(C)Cl)C2OC(SC)C(O)C(O)C2O)N(C)C1 (stereo not drawn) | 141 |
| CC12CCC(O)C=C1CCC1C2CCC2(C)C(c3ccc(=O)oc3)CCC12O (stereo not drawn) | 235 |
| C[Si](C)(Cl)CC[Si](C)(C)Cl | 37 |

| Compound | melting point [°C] |
| --- | --- |
| Cc1ccccc1N=O | 73.5 |
| COc1cc2c(cc1OCc1ccccc1)C(C)NCC2 (stereo not drawn) | 91 |
| COc1ccc(-c2cc[nH]n2)cc1 | 127 to 130 |
| O=C1CCC(F)(F)CC1 | 39 |
| O=C(c1ccccc1)C1C(=O)c2ccccc2C1=O | 108 to 112 |
| Cc1nn(C)c(Cl)c1S(=O)(=O)Cl | 35 |
| c1coc(CSSCc2ccco2)c1 | 10 |
| O=[N+]([O-])c1ccc(Oc2ccc(N=C=S)cc2)cc1 | 122 to 124 |
| Cc1ccc(CCc2ccc(C)cc2)cc1 | 85 |
| CC12CCC(O)C(C)(C)C1C(=O)C(=O)c1c(O)c(C(CO)CO)c(O)c(O)c12 (stereo not drawn) | 238 to 240 |
| O=[N+]([O-])c1cc2c(cc1C/C(=N/Nc1ccccc1)c1ccccc1)n1n(-c3ccccc3)n21 | 197 to 198 |
| O=C1COc2ccc(S(=O)(=O)Cl)cc2N1 | 178 |
| CC1=C(C)C(O)OC1=O (stereo not drawn) | 82 |
| CCOc1cccc(OCC(F)(F)F)c1C#N | 78 to 80 |
| CCC(C)(Cl)Cl | -74 |
| CCSc1nnc(C(C)(C)C)c(=O)n1N | 95 |
| C=C(C)CCCCCCCCCC | -31 |
| COc1ccc(-c2nn3c(C)nnc3s2)cc1 | 177 |
| CN(C)C(=O)OC1=CC(=O)CC(C)(C)C1 | 45.5 |
| C#CC=CC=C | -81 |
| CC(=O)OC1CCC2(C)C(CCC3(C)C2C(=O)C=C2C4CC(C)(C(=O)O)CCC4(C)CCC23C)C1(C)C (stereo not drawn) | 323 |

| Compound | melting point [°C] |
| --- | --- |
| COc1ccc(N/N=C(\C#N)c2nc(C)c(/N=N/c3ccccc3)s2)cc1 | 178 |
| COC1N(c2ccccc2)N=C(c2ccccc2)N1c1ccccc1 (stereo not drawn) | 80 |
| O=C(N(Cc1ccccc1)Cc1ccccc1)C(F)(F)C(F)(F)C(F)(F)C(F)(F)C(F)(F)C(F)(F)C(F)(F)C(F)(F)F | 49 |
| COC(=O)CCc1cc(CCC(=O)OC)c([N+](=O)[O-])cc1[N+](=O)[O-] | 71 |
| CC(=O)Oc1c(-c2ccc(-c3[nH]c4cc([N+](=O)[O-])ccc4c3OC(C)=O)cc2)[nH]c2cc([N+](=O)[O-])ccc12 | 280 |
| COC(=O)[C@H](C)On1c(C)csc1=S | 69.8 |
| COc1cc(C(=O)O)c([N+](=O)[O-])c(OC)c1OC | 166 to 169 |
| CCOC(=O)C1CN(Cc2ccco2)C(=O)C1=O (stereo not drawn) | 127 to 129 |
| O=c1ccc2cc3ccoc3c(O)c2o1 | 252 |
| O=c1[nH]c(=O)c2cn[nH]c2[nH]1 | 300 |
| OCCCC(Cl)(Cl)CO | 40 to 42 |
| Cc1cc(O)c(C(C)(C)C)cc1C(C)CC(c1cc(C(C)(C)C)c(O)cc1C)c1cc(C(C)(C)C)c(O)cc1C (stereo not drawn) | 186 |
| CCCCCCCCCCCCCCCC(=O)OCCOC(=O)CCCCCCCCCCCCCCC | 72 |
| CCCCCCCCOC(=O)CCCC | -42.3 |
| O=C(Oc1c(F)c(F)c(F)c(F)c1F)c1csc(-c2cccnc2)n1 | 136 to 137 |
| O=C1Cc2cc3c(cc21)C(=O)C3 | 207 |
| ClC(Cl)(Cl)CC(Cl)(Cl)Cl | -27 |
| O=C(CCl)c1cc(Br)c(Cl)s1 | 77 to 78 |

Other lines, results leading:

| melting point [°C] | Compound |
| --- | --- |
| 9 | Nc1ccc(Cl)cc1C(F)(F)F |
| 72 | O=C(Oc1ccccc1)c1cccnc1 |
| 127 | CCOC(=O)C(=O)C(C#N)c1ccccc1 (stereo not drawn) |
| 254 to 258 | O=C(O)c1cc2cc(F)ccc2[nH]1 |
| 109 to 111 | NNS(=O)(=O)c1ccc(-c2ccccn2)s1 |
| 106 | CCCCCC(=O)Nc1ccc(Cl)c(Cl)c1 |
| 210 | O=c1c2ccccc2nc2n1CCC2O (stereo not drawn) |
| 174 to 176 | CS(=O)(=O)c1ccc2ccn(O)c2c1 |
| 205 | O=C(O)c1cc(O)ccc1F |
| 219 | CC(=O)Nc1ccc2c(OC(C)=O)c(-c3ccccc3)[nH]c2c1 |
| 78.6 to 80.4 | CC1(C)N=C(c2ccccc2)C(C)(C)N1O |
| 78 to 80 | O=C(c1ccc(Cl)c([N+](=O)[O-])c1)C1CC1 |
| 71 | O=S(=O)(Cl)c1cc(Br)ccc1Br |
| 108 to 111 | CC1(C)N=C(c2ccccc2)C=[N+]1[O-] |
| 38.5 | N#Cc1cc(C(F)(F)F)ccc1Cl |
| 290 | CCn1cc(C(=O)O)c(=O)c2ccc(-c3ccncc3)cc21 |
| 68 | COc1ccc(Br)cc1C |
| 208 | CC1=C(C(=O)OC(C)(C)C)C(c2ccco2)NC(=O)N1 (stereo not drawn) |
| 154 to 156 | NC(=S)NN=Cc1ccccc1 |
| 184 | O=C(O)c1ccc(Br)nc1 |
| 115 to 117 | O=C(CBr)c1ccc(-c2ccccc2)s1 |

| melting point [°C] | Compound |
| --- | --- |
| 178 | COc1cc(C(=O)O)cc(OCc2ccccc2)c1OC |
| 123 | Clc1nnnn1-c1ccccc1 |
| 38 | Fc1c(Cl)cccc1Cl |
| 206 | NC(=O)Nc1ccc(Cl)cc1 |
| 113 | Oc1cc(C(F)(F)F)nc2c(F)cccc12 |
| 71 | N#Cc1ccc(Br)cc1F |
| 101 | Cc1nc(-c2cnccn2)sc1C(=O)Cl |
| 112 to 114 | COc1ccc(OCC(=O)O)cc1 |
| 92 to 93 | CCOC(=O)c1c(-c2ccccc2)csc1NC(=O)C(Cl)Cl |
| 53.5 | O=C(Cl)c1ccc(Cl)c([N+](=O)[O-])c1 |
| 201 | NC(=S)c1ccncc1 |
| 198 to 200 | O=C(O)c1cccc2nsnc12 |
| 70 | Cc1ccc(Br)c(C)c1[N+](=O)[O-] |
| 133 | O=C(c1ccco1)c1noc(-c2ccc(Br)cc2)c1S(=O)(=O)c1ccccc1 |
| 108 to 110 | O=C(Nc1ccccn1)C(C(F)(F)F)C(F)(F)F |
| 28 to 30 | COc1ccc(CCO)cc1 |
| 85 to 88 | CC(C)(C)OC(=O)N[C@@H](CSCc1ccccc1)C(=O)O |
| 41 to 42 | Brc1ccccc1COc1ccccc1 |
| 151 | N#Cc1ccc(CC(=O)O)cc1 |
| 129 to 130 | O=Cc1cc2cc(Br)ccc2o1 |
| 37 to 41 | COC(=O)CCc1ccc(O)cc1 |
